# Source: patent US6855730B2, “3-methylidenyl-2-indolinone modulators of protein kinase” (Sugen, Inc., priority 1998, dated 2005)
# Columns and labels:
# PDGFR-β = target: T1, PDGFR-β (Homo sapiens, UniProt P09619); assay: Biochemical PDGFR assay (ELISA, PDGFR-β expressing NIH 3T3 cell lysate); settings: read-out: bio PDGF IC50
# T1 construct: host or cells: NIH 3T3
# Procedure, shortened: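 Phosphorylation was read by ELISA (anti-phosphotyrosine serum, peroxidase secondary, ABTS at 410 nm) after a 30 min room-temperature reaction with 20 μM ATP, EDTA-stopped. Kinase was lysate-derived PDGFR-β (NIH 3T3) immobilised via 28D4C10 antibody, compound added 30 min before ATP.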
# flkGST = target: T2, flkGST (Homo sapiens, UniProt P35968); assay: bio flkGST assay; format: biochemical
# T2 construct: GST
# T2 sequence (P35968 786-1356 limits assumed): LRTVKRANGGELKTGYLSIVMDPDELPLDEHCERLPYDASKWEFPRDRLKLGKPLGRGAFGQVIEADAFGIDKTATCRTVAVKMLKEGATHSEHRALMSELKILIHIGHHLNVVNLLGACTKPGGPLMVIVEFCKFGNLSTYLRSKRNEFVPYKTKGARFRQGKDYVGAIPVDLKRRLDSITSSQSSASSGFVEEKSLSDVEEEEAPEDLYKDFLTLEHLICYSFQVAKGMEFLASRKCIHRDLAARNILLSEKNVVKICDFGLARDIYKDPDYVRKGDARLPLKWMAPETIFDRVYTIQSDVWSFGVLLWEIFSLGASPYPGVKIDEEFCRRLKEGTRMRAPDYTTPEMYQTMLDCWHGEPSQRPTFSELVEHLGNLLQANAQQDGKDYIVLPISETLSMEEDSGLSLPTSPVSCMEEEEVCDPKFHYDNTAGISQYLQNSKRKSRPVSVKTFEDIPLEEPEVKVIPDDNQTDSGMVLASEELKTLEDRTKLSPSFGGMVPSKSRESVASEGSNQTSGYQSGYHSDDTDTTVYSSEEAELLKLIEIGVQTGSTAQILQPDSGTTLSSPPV
# pyk2 = pyk2 (Homo sapiens, UniProt Q14289); assay: bio pyk2 assay; format: biochemical
# Sequence of pyk2 (Q14289 whole entry, species assumed, the tested form may be a part): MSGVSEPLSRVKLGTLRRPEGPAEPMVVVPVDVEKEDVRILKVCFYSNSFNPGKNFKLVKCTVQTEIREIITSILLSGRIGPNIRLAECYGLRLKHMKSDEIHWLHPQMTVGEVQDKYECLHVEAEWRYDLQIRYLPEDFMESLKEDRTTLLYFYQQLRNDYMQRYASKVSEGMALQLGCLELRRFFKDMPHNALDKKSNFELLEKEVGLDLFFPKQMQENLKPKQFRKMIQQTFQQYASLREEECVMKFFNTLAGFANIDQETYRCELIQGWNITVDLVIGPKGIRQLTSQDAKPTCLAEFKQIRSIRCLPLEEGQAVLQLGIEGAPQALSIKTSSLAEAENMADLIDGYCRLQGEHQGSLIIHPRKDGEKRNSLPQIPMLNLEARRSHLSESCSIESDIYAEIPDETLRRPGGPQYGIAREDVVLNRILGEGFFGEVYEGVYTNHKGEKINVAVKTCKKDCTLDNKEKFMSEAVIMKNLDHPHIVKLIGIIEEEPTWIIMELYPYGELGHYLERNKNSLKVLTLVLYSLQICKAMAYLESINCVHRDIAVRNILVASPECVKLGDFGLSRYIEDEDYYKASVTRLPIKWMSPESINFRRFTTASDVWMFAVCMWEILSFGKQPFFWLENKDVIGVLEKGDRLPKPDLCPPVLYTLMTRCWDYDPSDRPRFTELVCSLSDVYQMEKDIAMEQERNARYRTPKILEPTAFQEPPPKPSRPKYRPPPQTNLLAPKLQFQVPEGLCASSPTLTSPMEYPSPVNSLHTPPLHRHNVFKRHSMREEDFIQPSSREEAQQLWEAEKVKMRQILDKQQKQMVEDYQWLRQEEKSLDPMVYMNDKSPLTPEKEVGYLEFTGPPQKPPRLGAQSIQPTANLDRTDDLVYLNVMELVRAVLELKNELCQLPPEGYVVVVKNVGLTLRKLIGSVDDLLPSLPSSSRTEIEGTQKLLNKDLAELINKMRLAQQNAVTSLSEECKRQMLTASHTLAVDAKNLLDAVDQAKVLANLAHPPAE
# [1] = target: Myc-GyrB-FGFR fusion protein (Homo sapiens, UniProt P11362); assay: Biochemical FGFR assay (ELISA); settings: read-out: bio fgfR1 IC50
# Sequence of Myc-GyrB-FGFR fusion protein (P11362 478-767 limits assumed): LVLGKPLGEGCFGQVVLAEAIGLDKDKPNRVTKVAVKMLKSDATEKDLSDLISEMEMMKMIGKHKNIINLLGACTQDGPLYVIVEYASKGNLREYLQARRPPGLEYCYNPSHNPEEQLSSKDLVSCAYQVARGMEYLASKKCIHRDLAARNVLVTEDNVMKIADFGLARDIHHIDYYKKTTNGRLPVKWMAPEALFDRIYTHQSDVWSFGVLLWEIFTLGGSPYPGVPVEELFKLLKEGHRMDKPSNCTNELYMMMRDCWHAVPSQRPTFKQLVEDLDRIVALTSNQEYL
# EGFR = EGFR (Homo sapiens, UniProt P00533); assay: Biochemical EGFR assay (ELISA, A431 cell lysate); set-up: A431 cell lysate (Screening Lab, SUGEN, Inc.); host or cells: A431; settings: read-out: bio EGFr IC50
# Sequence of EGFR (P00533 25-1210): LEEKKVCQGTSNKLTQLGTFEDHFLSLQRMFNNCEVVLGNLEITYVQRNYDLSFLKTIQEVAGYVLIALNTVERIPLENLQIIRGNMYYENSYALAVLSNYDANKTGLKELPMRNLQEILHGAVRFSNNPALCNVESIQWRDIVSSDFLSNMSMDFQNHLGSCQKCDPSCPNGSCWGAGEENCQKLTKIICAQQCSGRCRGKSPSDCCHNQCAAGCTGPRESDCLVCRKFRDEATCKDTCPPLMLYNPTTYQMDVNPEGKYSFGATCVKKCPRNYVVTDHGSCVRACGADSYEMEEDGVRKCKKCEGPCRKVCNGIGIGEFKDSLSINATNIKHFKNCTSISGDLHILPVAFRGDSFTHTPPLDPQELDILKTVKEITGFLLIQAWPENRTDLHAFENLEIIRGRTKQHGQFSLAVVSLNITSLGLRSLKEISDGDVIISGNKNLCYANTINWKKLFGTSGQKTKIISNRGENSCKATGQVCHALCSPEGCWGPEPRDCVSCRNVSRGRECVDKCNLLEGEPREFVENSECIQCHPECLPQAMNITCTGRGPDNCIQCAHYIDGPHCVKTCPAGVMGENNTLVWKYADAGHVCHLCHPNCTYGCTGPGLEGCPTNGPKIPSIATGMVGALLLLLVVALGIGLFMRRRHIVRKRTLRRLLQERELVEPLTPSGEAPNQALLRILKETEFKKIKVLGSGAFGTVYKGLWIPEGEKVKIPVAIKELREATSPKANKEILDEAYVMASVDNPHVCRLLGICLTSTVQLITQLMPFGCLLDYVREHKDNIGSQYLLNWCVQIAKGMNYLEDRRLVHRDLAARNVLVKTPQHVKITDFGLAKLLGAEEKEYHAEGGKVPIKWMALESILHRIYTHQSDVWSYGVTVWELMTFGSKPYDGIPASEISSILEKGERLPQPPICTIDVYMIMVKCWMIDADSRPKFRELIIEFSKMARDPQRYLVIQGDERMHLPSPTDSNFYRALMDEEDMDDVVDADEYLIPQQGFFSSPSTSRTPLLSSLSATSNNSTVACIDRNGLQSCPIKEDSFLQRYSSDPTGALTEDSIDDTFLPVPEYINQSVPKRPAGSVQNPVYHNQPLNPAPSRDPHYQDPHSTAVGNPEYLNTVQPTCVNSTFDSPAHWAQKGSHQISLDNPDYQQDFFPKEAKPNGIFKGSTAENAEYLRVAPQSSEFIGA
# Procedure, shortened: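 EGFR captured from A431 cell lysate onto anti-EGFR-coated plates, then incubated with test compound for 30 min at room temperature. Tyrosine phosphorylation with ATP/MnCl2 was stopped with EDTA after 5 min and detected by anti-phosphotyrosine ELISA with peroxidase/ABTS read-out.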
# T1 sequence (P09619 33-1106): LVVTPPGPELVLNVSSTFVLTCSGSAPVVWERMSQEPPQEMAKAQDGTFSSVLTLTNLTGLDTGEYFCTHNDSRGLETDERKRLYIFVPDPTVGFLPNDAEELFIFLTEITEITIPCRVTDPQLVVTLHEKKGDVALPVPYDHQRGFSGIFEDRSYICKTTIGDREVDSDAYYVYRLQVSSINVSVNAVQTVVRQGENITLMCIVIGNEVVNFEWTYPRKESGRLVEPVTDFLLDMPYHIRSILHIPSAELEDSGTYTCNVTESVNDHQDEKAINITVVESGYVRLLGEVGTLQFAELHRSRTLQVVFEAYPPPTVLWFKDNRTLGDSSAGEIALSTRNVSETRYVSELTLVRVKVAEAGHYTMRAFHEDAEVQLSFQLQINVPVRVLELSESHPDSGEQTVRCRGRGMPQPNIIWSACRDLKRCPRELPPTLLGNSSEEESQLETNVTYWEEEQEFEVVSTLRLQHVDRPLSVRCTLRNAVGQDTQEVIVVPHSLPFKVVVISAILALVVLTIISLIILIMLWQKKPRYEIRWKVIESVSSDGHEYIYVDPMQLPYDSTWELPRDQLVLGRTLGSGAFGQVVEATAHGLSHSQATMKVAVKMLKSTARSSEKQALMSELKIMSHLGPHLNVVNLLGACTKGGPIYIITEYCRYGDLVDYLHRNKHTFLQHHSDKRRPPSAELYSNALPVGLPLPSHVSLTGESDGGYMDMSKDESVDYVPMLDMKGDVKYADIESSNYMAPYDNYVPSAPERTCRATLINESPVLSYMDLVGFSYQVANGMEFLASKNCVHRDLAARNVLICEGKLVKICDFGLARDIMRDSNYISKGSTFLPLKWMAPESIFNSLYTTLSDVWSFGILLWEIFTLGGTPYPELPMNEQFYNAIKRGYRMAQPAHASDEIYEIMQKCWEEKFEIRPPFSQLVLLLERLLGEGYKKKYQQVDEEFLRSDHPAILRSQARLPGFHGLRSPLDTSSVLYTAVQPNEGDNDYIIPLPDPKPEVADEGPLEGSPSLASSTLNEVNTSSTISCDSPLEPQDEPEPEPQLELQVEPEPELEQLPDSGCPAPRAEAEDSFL
Compound,IC50 (PDGFR-β) [µM],IC50 (flkGST) [µM],IC50 (pyk2) [µM],IC50 [1] [µM],IC50 (EGFR) [µM]
"CCOC(=O)c1c(C)[nH]c(/C=C2\C(=O)Nc3cccc(CCO)c32)c1CCCN1CCN(C)CC1 [Example 136, 5-[4-(2-Hydroxyethyl)-2-oxo-1,2-dihydroindol-3-ylidenemethyl]-2-methyl-4-[3-(4methylpiperazin-1-yl)-propyl]-1H-pyrrole-3-carboxylic acid ethyl ester]",27,0.56,2.77,–,–
"CN(C)CCCc1c(/C=C2\C(=O)Nc3cccc(CCO)c32)[nH]c2ccccc12 [Example 150, 3-[3-(3-Dimethylaminopropyl)-1H-indol-2-ylmethylene]-4-(2-hydroxyethyl)-1,3-dihydroindol-2-one]",0.34,0.2,0.01,–,–
"CCOC(=O)c1c(C)[nH]c(/C=C2\C(=O)Nc3ccc(S(=O)(=O)NC)cc32)c1CCCN1CCN(C)CC1 [Example 119, 2-Methyl-4-[3-(4-methylpiperazin-1-yl)-propyl]-5-(5-methylsulfamoyl-2-oxo-1,2-dihydroindol-3-ylidenemethyl)-1H-pyrrole-3-carboxylic acid ethyl ester]",> 100,6.33,2.02,–,–
"CCOC(=O)c1c(C)[nH]c(/C=C2\C(=O)Nc3ccc(S(N)(=O)=O)cc32)c1CCCN1CCN(C)CC1 [Example 124, 2-Methyl-4-[3-(4-methylpiperazin-1-yl)-propyl]-5-(2-oxo-5-sulfamoyl-1,2-dihydroindol-3ylidenemethyl)-1H-pyrrole-3-carboxylic acid ethyl ester]",33.9,13.9,4.21,–,–
"CCOC(=O)c1c(C)[nH]c(/C=C2\C(=O)Nc3ccc(S(=O)(=O)NC)cc32)c1CCCN1CCOCC1 [Example 118, 2-Methyl-5-(5-methylsulfamoyl-2-oxo-1,2-dihydroindol-3-ylidenemethyl)-4-(3-morpholin-4-ylpropyl)-1H-pyrrole-3-carboxylic acid ethyl ester]",> 100,9.29,4.24,–,–
"CCOC(=O)c1c(C)[nH]c(/C=C2\C(=O)Nc3cccc(CCO)c32)c1CCCN1CCCC1 [Example 132, 5-[4-(2-Hydroxyethyl)-2-oxo-1,2-dihydroindol-3-ylidenemethyl]-2-methyl-4-(3-pyrrolidin-1-ylpropyl)-1H-pyrrole-3-carboxylic acid ethyl ester]",0.65,–,0.22,–,–
"CNS(=O)(=O)c1ccc2c(c1)/C(=C/c1[nH]c(C)c(C(=O)O)c1CCCN(C)C)C(=O)N2 [Example 138, 4-(3-Dimethylaminopropyl)-2-methyl-5-(5-methylsulfamoyl-2-oxo-1,2-dihydroindol-3-ylidenemethyl)-1H-pyrrole-3-carboxylic acid]",26.2,17.6,2.18,–,> 100
CCOC(=O)c1c(C)[nH]c(/C=C2\C(=O)Nc3ccc(S(=O)(=O)NC)cc32)c1CCCN(C)C [Example 137],6.17,7.54,> 10,–,> 100
"CCOC(=O)c1c(C)[nH]c(/C=C2\C(=O)Nc3cccc(CCO)c32)c1CCCN1CCOCC1 [Example 131, 5-[4-(2-Hydroxyethyl)-2-oxo-1,2-dihydroindol-3-ylidenemethyl]-2-methyl-4-(3-morpholin-4-ylpropyl)-1H-pyrrole-3-carboxylic acid ethyl ester]",23.2,–,2.18,–,–
CCOC(=O)c1[nH]c(/C=C2\C(=O)Nc3ccc(S(=O)(=O)NC)cc32)c(CCC(=O)O)c1C [Example 146],> 100,15.6,–,> 20,> 100

# The next lines start with the values.
IC50 (PDGFR-β) [µM],IC50 (flkGST) [µM],IC50 (pyk2) [µM],IC50 [1] [µM],IC50 (EGFR) [µM],Compound
> 100,> 20,57.1,3.23,–,"CNS(=O)(=O)c1ccc2c(c1)/C(=C/c1c[nH]c3ccccc13)C(=O)N2 [Example 178, 3-(1H-Indol-3-ylmethylene)-2-oxo-2,3-dihydro-1H-indole-5-sulfonic acid methylamide]"
18,0.26,12.3,> 20,–,"CC(=O)c1ccc2c(c1)C(=Cc1cc3ccccc3[nH]1)C(=O)N2 [Example 158, 5-Acetyl-3-(1H-indol-2-ylmethylene)-1,3-dihydro-indol-2-one]"
> 100,> 20,> 100,> 20,–,"Cc1[nH]c2ccccc2c1/C=C1\C(=O)Nc2ccc(S(N)(=O)=O)cc21 [Example 189, 3-(2-Methyl-1H-indol-3-ylmethylene)-2-oxo-2,3-dihydro-1H-indole-5-sulfonic acid amide]"
> 100,3.39,> 100,9.43,–,"NS(=O)(=O)c1ccc2c(c1)/C(=C/c1ccc3[nH]ccc3c1)C(=O)N2 [Example 185, 3-(1H-Indol-5-ylmethylene)-2-oxo-2,3-dihydro-1H-indole-5-sulfonic acid amide]"
> 100,6.12,> 100,10.4,–,"CN(C)S(=O)(=O)c1ccc2c(c1)/C(=C/c1cc3ccccc3[nH]1)C(=O)N2 [Example 186, 3-(1H-Indol-2-ylmethylene)-2-oxo-2,3-dihydro-1H-indole-5-sulfonic acid dimethylamide]"
> 100,1.55,> 100,7.68,–,"CN(C)S(=O)(=O)c1ccc2c(c1)/C(=C/c1ccc3[nH]ccc3c1)C(=O)N2 [Example 183, 3-(1H-Indol-5-ylmethylene)-2-oxo-2,3-dihydro-1H-indole-5-sulfonic acid dimethylamide]"
> 100,> 20,> 100,8.6,–,"Cc1[nH]c2ccccc2c1/C=C1\C(=O)Nc2ccc(S(=O)(=O)N(C)C)cc21 [Example 184, 3-(2-Methyl-1H-indol-3-ylmethylene)-2-oxo-2,3-dihydro-1H-indole-5-sulfonic acid dimethylamide]"
55.4,1.51,5.53,0.73,–,"Cc1c(/C=C2\C(=O)Nc3ccc(S(N)(=O)=O)cc32)[nH]c2ccccc12 [Example 175, 3-(3-Methyl-1H-indol-2-ylmethylene)-2-oxo-2,3-dihydro-1H-indole-5-sulfonic acid amide]"
> 100,> 20,66.4,17.5,–,"CN(C)S(=O)(=O)c1ccc2c(c1)/C(=C/c1c[nH]c3ccccc13)C(=O)N2 [Example 188, 3-(1H-Indol-3-ylmethylene)-2-oxo-2,3-dihydro-1H-indole-5-sulfonic acid dimethylamide]"
> 100,12.5,> 100,5.74,–,"CNS(=O)(=O)c1ccc2c(c1)/C(=C/c1c(C)[nH]c3ccccc13)C(=O)N2 [Compound 181, 3-(2-Methyl-1H-indol-3-ylmethylene)-2-oxo-2,3-dihydro-1H-indole 5-sulfonic acid methylamide]"
5.26,2.66,5.02,0.77,–,"CNS(=O)(=O)c1ccc2c(c1)/C(=C/c1[nH]c3ccccc3c1CCCN(C)C)C(=O)N2 [Example 149, 3-[3-(3-Dimethylaminopropyl)-1H-indol-2-ylmethylene]-2-oxo-2,3-dihydro-1H-indole-5-sulfonic acid methylamide]"
79.2,2.08,66.1,0.75,–,"CNS(=O)(=O)c1ccc2c(c1)/C(=C/c1ccc3[nH]ccc3c1)C(=O)N2 [Example 176, 3-(1H-Indol-5-ylmethylene)-2-oxo-2,3-dihydro-1H-indole-5-sulfonic acid methylamide]"
15.2,16.9,4.71,–,–,"CCOC(=O)c1c(C)[nH]c(/C=C2\C(=O)Nc3ccc(S(N)(=O)=O)cc32)c1CCCN1CCOCC1 [Example 123, 2-Methyl-4-(3-morpholin-4-ylpropyl)-5-(2-oxo-5-sulfamoyl-1,2-dihydroindol-3-ylidenemethyl)-1H-pyrrole-3-carboxylic acid ethyl ester]"
